Source: ChEMBL document CHEMBL1201862, “PubChem BioAssay data set” (2004)
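Tested at 5 concentrations; 48 h exposure; 96-well plates; endpoints linearly interpolated, else capped at highest concentration. GI50: concentration for 50% inhibition of growth.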 The source made the active and inactive calls. Cut-off read from the data, not from the text of the source: active = GI50 up to about 1.1 µM and inactive = higher.

Legend:
Assay in all cases: DTP human tumour cell line panel, 48 h
KM12 = test system: KM12
M14 = test system: M14
NCI-H522 = test system: NCI-H522
HOP-92 = test system: HOP-92
HOP-62 = test system: HOP-62
NCI-H226 = test system: NCI-H226
IGROV-1 = test system: IGROV-1
U-251 = test system: U-251
MOLT-4 = test system: MOLT-4
SK-MEL-28 = test system: SK-MEL-28
UACC-62 = test system: UACC-62
NCI-H460 = test system: NCI-H460
SNB-78 = test system: SNB-78
HT-29 = test system: HT-29
SNB-19 = test system: SNB-19
A549 = test system: A549
SR = test system: SR
NCI-H23 = test system: NCI-H23
DMS-273 = test system: DMS-273
OVCAR-5 = test system: OVCAR-5
CCRF-CEM = test system: CCRF-CEM
K562 = test system: K562
SF-268 = test system: SF-268
UO-31 = test system: UO-31
HL-60 = test system: HL-60
M19-MEL = test system: M19-MEL
EKVX = test system: EKVX
TK-10 = test system: TK-10
RXF 393 = test system: RXF 393
A498 = test system: A498
SK-OV-3 = test system: SK-OV-3
BT-549 = test system: BT-549
SW-620 = test system: SW-620
786-0 = test system: 786-0
ACHN = test system: ACHN
SF-539 = test system: SF-539
MDA-MB-435 = test system: MDA-MB-435
DU-145 = test system: DU-145
SNB-75 = test system: SNB-75
RPMI-8226 = test system: RPMI-8226
HCT-116 = test system: HCT-116
UACC-257 = test system: UACC-257
T47D = test system: T47D
COLO 205 = test system: COLO 205
CAKI-1 = test system: CAKI-1
SF-295 = test system: SF-295
SK-MEL-5 = test system: SK-MEL-5
Hs-578T = test system: Hs-578T
HCC 2998 = test system: HCC 2998
MDA-N = test system: MDA-N
NCI/ADR-RES = test system: NCI/ADR-RES
SN12C = test system: SN12C
OVCAR-4 = test system: OVCAR-4
OVCAR-8 = test system: OVCAR-8
PC-3 = test system: PC-3
Malme-3M = test system: Malme-3M
MCF7 = test system: MCF7
MDA-MB-231 = test system: MDA-MB-231
OVCAR-3 = test system: OVCAR-3
LOX IMVI = test system: LOX IMVI
SK-MEL-2 = test system: SK-MEL-2
HCT-15 = test system: HCT-15

**Q.** How did the GI50 (KM12) turn out when `N#CC1Sc2ccccc2-n2cccc21` (stereo not given) was run?
**A.** 85.7 µM (inactive)

**Q.** What about the GI50 (M14) of the same compound?
**A.** > 100 µM (inactive)

**Q.** And the GI50 (NCI-H522)?
**A.** 36.1 µM (inactive)

**Q.** What about the GI50 (HOP-92) of the same compound?
**A.** 42.6 µM (inactive)

**Q.** What about the GI50 (HOP-62) of the same compound?
**A.** > 100 µM (inactive)

**Q.** And the GI50 (NCI-H226)?
**A.** 4.98 µM (inactive)

**Q.** What about the GI50 (IGROV-1) of the same compound?
**A.** > 100 µM (inactive)

**Q.** And the GI50 (U-251)?
**A.** > 100 µM (inactive)

**Q.** And the GI50 (MOLT-4)?
**A.** 58.9 µM (inactive)

**Q.** And the GI50 (SK-MEL-28)?
**A.** > 100 µM (inactive)

**Q.** And the GI50 (UACC-62)?
**A.** 30.3 µM (inactive)

**Q.** And the GI50 (NCI-H460)?
**A.** > 100 µM (inactive)

**Q.** What about the GI50 (SNB-78) of the same compound?
**A.** 34.7 µM (inactive)

**Q.** What about the GI50 (HT-29) of the same compound?
**A.** > 100 µM (inactive)

**Q.** And the GI50 (SNB-19)?
**A.** > 100 µM (inactive)

**Q.** And the GI50 (A549)?
**A.** 45 µM (inactive)

**Q.** And the GI50 (SR)?
**A.** 37.6 µM (inactive)

**Q.** What about the GI50 (NCI-H23) of the same compound?
**A.** 63.7 µM (inactive)

**Q.** And the GI50 (DMS-273)?
**A.** 44 µM (inactive)

**Q.** And the GI50 (OVCAR-5)?
**A.** 24.3 µM (inactive)

**Q.** What about the GI50 (CCRF-CEM) of the same compound?
**A.** 70.8 µM (inactive)

**Q.** And the GI50 (K562)?
**A.** 26.7 µM (inactive)

**Q.** What about the GI50 (SF-268) of the same compound?
**A.** 25.1 µM (inactive)

**Q.** What about the GI50 (UO-31) of the same compound?
**A.** 25.4 µM (inactive)

**Q.** And the GI50 (HL-60)?
**A.** 22.8 µM (inactive)

**Q.** What about the GI50 (M19-MEL) of the same compound?
**A.** > 100 µM (inactive)

**Q.** What about the GI50 (EKVX) of the same compound?
**A.** 61.2 µM (inactive)

**Q.** And the GI50 (TK-10)?
**A.** 80 µM (inactive)

**Q.** And the GI50 (RXF 393)?
**A.** 23.2 µM (inactive)

**Q.** And the GI50 (A498)?
**A.** 67.6 µM (inactive)

**Q.** And the GI50 (SK-OV-3)?
**A.** 67.3 µM (inactive)

**Q.** For `CCCCCc1cc(CCCC)sc1-c1ccco1`, which GI50 (BT-549) is on record?
**A.** > 100 µM (inactive)

**Q.** What about the GI50 (KM12) of the same compound?
**A.** > 86.9 µM (inactive)

**Q.** And the GI50 (SW-620)?
**A.** > 100 µM (inactive)

**Q.** And the GI50 (786-0)?
**A.** > 100 µM (inactive)

**Q.** And the GI50 (M14)?
**A.** 97.5 µM (inactive)

**Q.** What about the GI50 (NCI-H522) of the same compound?
**A.** > 100 µM (inactive)

**Q.** And the GI50 (HOP-92)?
**A.** > 100 µM (inactive)

**Q.** And the GI50 (ACHN)?
**A.** > 100 µM (inactive)

**Q.** What about the GI50 (SF-539) of the same compound?
**A.** > 93.8 µM (inactive)

**Q.** And the GI50 (HOP-62)?
**A.** > 100 µM (inactive)

**Q.** And the GI50 (NCI-H226)?
**A.** > 100 µM (inactive)

**Q.** What about the GI50 (MDA-MB-435) of the same compound?
**A.** 66.5 µM (inactive)

**Q.** And the GI50 (IGROV-1)?
**A.** > 100 µM (inactive)

**Q.** And the GI50 (U-251)?
**A.** > 76.7 µM (inactive)

**Q.** And the GI50 (MOLT-4)?
**A.** 51.9 µM (inactive)

**Q.** And the GI50 (SK-MEL-28)?
**A.** > 100 µM (inactive)

**Q.** What about the GI50 (UACC-62) of the same compound?
**A.** > 100 µM (inactive)

**Q.** What about the GI50 (NCI-H460) of the same compound?
**A.** > 100 µM (inactive)

**Q.** And the GI50 (DU-145)?
**A.** > 100 µM (inactive)

**Q.** And the GI50 (SNB-75)?
**A.** > 100 µM (inactive)

**Q.** What about the GI50 (RPMI-8226) of the same compound?
**A.** 55.3 µM (inactive)

**Q.** What about the GI50 (HT-29) of the same compound?
**A.** 45 µM (inactive)

**Q.** What about the GI50 (HCT-116) of the same compound?
**A.** 29.6 µM (inactive)

**Q.** And the GI50 (SNB-19)?
**A.** > 100 µM (inactive)

**Q.** What about the GI50 (A549) of the same compound?
**A.** 40 µM (inactive)

**Q.** What about the GI50 (UACC-257) of the same compound?
**A.** > 64.3 µM (inactive)

**Q.** And the GI50 (T47D)?
**A.** > 91.2 µM (inactive)

**Q.** What about the GI50 (SR) of the same compound?
**A.** 44.2 µM (inactive)

**Q.** What about the GI50 (COLO 205) of the same compound?
**A.** > 100 µM (inactive)

**Q.** What about the GI50 (NCI-H23) of the same compound?
**A.** > 100 µM (inactive)

**Q.** What about the GI50 (CAKI-1) of the same compound?
**A.** > 100 µM (inactive)

**Q.** What about the GI50 (SF-295) of the same compound?
**A.** > 85.5 µM (inactive)

**Q.** And the GI50 (SK-MEL-5)?
**A.** > 100 µM (inactive)

**Q.** And the GI50 (OVCAR-5)?
**A.** > 87.3 µM (inactive)

**Q.** And the GI50 (Hs-578T)?
**A.** > 100 µM (inactive)

**Q.** And the GI50 (HCC 2998)?
**A.** > 95.9 µM (inactive)

**Q.** What about the GI50 (CCRF-CEM) of the same compound?
**A.** 30.5 µM (inactive)

**Q.** And the GI50 (K562)?
**A.** > 58.2 µM (inactive)

**Q.** And the GI50 (MDA-N)?
**A.** > 80.5 µM (inactive)

**Q.** What about the GI50 (NCI/ADR-RES) of the same compound?
**A.** > 100 µM (inactive)

**Q.** And the GI50 (SN12C)?
**A.** > 100 µM (inactive)

**Q.** And the GI50 (OVCAR-4)?
**A.** > 100 µM (inactive)

**Q.** What about the GI50 (SF-268) of the same compound?
**A.** > 100 µM (inactive)

**Q.** What about the GI50 (OVCAR-8) of the same compound?
**A.** > 100 µM (inactive)

**Q.** What about the GI50 (UO-31) of the same compound?
**A.** > 100 µM (inactive)

**Q.** What about the GI50 (PC-3) of the same compound?
**A.** > 100 µM (inactive)

**Q.** What about the GI50 (HL-60) of the same compound?
**A.** 21.7 µM (inactive)

**Q.** And the GI50 (EKVX)?
**A.** > 87.1 µM (inactive)

**Q.** And the GI50 (Malme-3M)?
**A.** 40 µM (inactive)

**Q.** What about the GI50 (MCF7) of the same compound?
**A.** 76.4 µM (inactive)

**Q.** What about the GI50 (MDA-MB-231) of the same compound?
**A.** > 100 µM (inactive)

**Q.** And the GI50 (OVCAR-3)?
**A.** > 74.8 µM (inactive)

**Q.** What about the GI50 (LOX IMVI) of the same compound?
**A.** 49.9 µM (inactive)

**Q.** And the GI50 (TK-10)?
**A.** > 100 µM (inactive)

**Q.** What about the GI50 (RXF 393) of the same compound?
**A.** 45.8 µM (inactive)

**Q.** What about the GI50 (A498) of the same compound?
**A.** > 100 µM (inactive)

**Q.** What about the GI50 (SK-OV-3) of the same compound?
**A.** > 100 µM (inactive)

**Q.** What about the GI50 (SK-MEL-2) of the same compound?
**A.** > 83.9 µM (inactive)

**Q.** What about the GI50 (HCT-15) of the same compound?
**A.** > 100 µM
